Experimental findings from PubChem BioAssay (NCI) are described below.

Test systems include SK-OV-3 ovarian; OVCAR-8 ovarian; IGROV1 ovarian; HCT-15 colon; SF-295 CNS; SF-539 CNS; M14 melanoma; SF-268 CNS; OVCAR-4 ovarian; CAKI-1 renal.
Holding throughout (experiment): NCI-60 cell line screen, 48 h

SMILES strings stand for the structures.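 Growth conditions: 96-well plates. Treatment: test compound, 48 hours, 5 concentrations. Analysis: linear interpolation between bracketing concentrations; unreached endpoints set to highest concentration. GI50 = concentration required for 50% inhibition of growth. The concentration for full growth arrest is given as TGI.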

As for `COC(=O)C12C3C4C1C1C2C3C41C(=O)N(C(C)C)C(C)C` (stereo unspecified), the TGI in the assay on SK-OV-3 ovarian, in the assay with OVCAR-8 ovarian, in the assay with IGROV1 ovarian, with HCT-15 colon, in the assay with SF-295 CNS and with SF-539 CNS was above 100 µM each time. Moreover, the TGI in the assay on M14 melanoma, in the assay on SF-268 CNS and in the assay with OVCAR-4 ovarian was above 100 µM throughout.

In the case of `N#CC1CCc2c(c(-c3cn[nH]c3C(F)(F)F)nc3c(F)cc4[nH]ncc4c23)C1` (stereo unspecified), the GI50 in the assay on SK-OV-3 ovarian was 3.21 µM; in the assay with OVCAR-8 ovarian, 13.7 µM; with IGROV1 ovarian, 2.46 µM; in the assay on HCT-15 colon, 53.1 µM; with CAKI-1 renal it was 18.6 µM; in the assay with SF-295 CNS it was 14 µM. In addition, the GI50 with SF-539 CNS was 3.43 µM; in the assay with M14 melanoma, 3.88 µM; in the assay with SF-268 CNS, 5.02 µM. The TGI was 10.5 µM with SK-OV-3 ovarian; above 100 µM in the assay with OVCAR-8 ovarian; 8.79 µM in the assay with IGROV1 ovarian; above 100 µM in the assay on HCT-15 colon; above 100 µM with CAKI-1 renal; 46.2 µM in the assay on SF-295 CNS. The TGI in the assay on SF-539 CNS was 15.4 µM; in the assay with M14 melanoma it was 21.7 µM; in the assay on SF-268 CNS, 27.4 µM.

For `CC[C@H](C)[C@H](NC(=O)c1nccn1C)C(=O)N(C)[C@H](C[C@@H](OC(C)=O)c1nc(C(=O)N[C@@H](Cc2ccccc2)C[C@H](C)C(=O)OC)cs1)C(C)C`, the GI50 in the assay with SK-OV-3 ovarian was 1.72 µM; in the assay on OVCAR-8 ovarian it was 1.44 µM; with IGROV1 ovarian, 0.704 µM; in the assay on HCT-15 colon it was 0.999 µM; in the assay on SF-295 CNS it was 0.639 µM; with SF-539 CNS it was 0.702 µM. Further, the GI50 was 0.557 µM with M14 melanoma, 1.43 µM with SF-268 CNS and 1.88 µM in the assay on OVCAR-4 ovarian. Besides, the TGI in the assay with SK-OV-3 ovarian was above 33.3 µM; with OVCAR-8 ovarian it was above 33.3 µM; in the assay with IGROV1 ovarian, above 33.3 µM; in the assay on HCT-15 colon it was above 33.3 µM; in the assay on SF-295 CNS it was 2.07 µM; in the assay on SF-539 CNS, 1.97 µM. The TGI with M14 melanoma is 1.6 µM; in the assay on SF-268 CNS, above 33.3 µM; in the assay on OVCAR-4 ovarian it was above 33.3 µM.

On to `[N-]=[N+]=Nc1c(Br)c(=O)[nH]c(=O)n1COCCO`, for which the TGI with OVCAR-8 ovarian, with IGROV1 ovarian, in the assay with CAKI-1 renal, in the assay with SF-295 CNS, in the assay with SF-539 CNS and with M14 melanoma was above 100 µM in each case. The TGI in the assay with SF-268 CNS and with OVCAR-4 ovarian was above 100 µM in each case.

As to `CC(=O)Nc1cc2cc(NS(=O)(=O)c3cc(C(F)(F)F)cc(C(F)(F)F)c3)ccc2oc1=O`, the TGI was above 100 µM in the assay on OVCAR-8 ovarian; above 100 µM in the assay with IGROV1 ovarian; above 100 µM with HCT-15 colon; above 100 µM in the assay with CAKI-1 renal; above 100 µM with SF-295 CNS; 96.6 µM in the assay with SF-539 CNS. Besides, the TGI in the assay with M14 melanoma, with SF-268 CNS and in the assay with OVCAR-4 ovarian was above 100 µM in each case.

As to `O=C(O)Cc1cc(=O)[nH]c2c1C(=O)CCC2`, the TGI in the assay on SK-OV-3 ovarian, with OVCAR-8 ovarian, in the assay on IGROV1 ovarian, in the assay on HCT-15 colon, in the assay on SF-295 CNS and with M14 melanoma was above 100 µM throughout. In addition, the TGI with SF-268 CNS is above 100 µM.

On to `COc1cc(/C=C\c2cc(OC)c(OC)c(OC)c2)cc(NS(=O)(=O)c2cccc(Cl)c2)c1OC`, for which the GI50 in the assay with SK-OV-3 ovarian was 1.15 µM; in the assay on OVCAR-8 ovarian, 0.429 µM; in the assay on IGROV1 ovarian it was 0.0887 µM; with HCT-15 colon, 0.146 µM; in the assay on CAKI-1 renal, 0.0527 µM; in the assay with SF-295 CNS, 0.0453 µM. In addition, the GI50 was 0.0344 µM in the assay with M14 melanoma, 0.202 µM in the assay with SF-268 CNS and 0.248 µM in the assay with OVCAR-4 ovarian. Moreover, the TGI in the assay with SK-OV-3 ovarian is above 100 µM; with OVCAR-8 ovarian, above 100 µM; in the assay with IGROV1 ovarian, above 100 µM; with HCT-15 colon, above 100 µM; in the assay on CAKI-1 renal it was 27.8 µM; in the assay on SF-295 CNS it was above 100 µM. For the same compound, the TGI in the assay with M14 melanoma, in the assay on SF-268 CNS and in the assay with OVCAR-4 ovarian was above 100 µM in each case.

Turning to `C(#Cc1ccccc1C#Cc1ccccn1)c1ccccn1`, the GI50 in the assay on SK-OV-3 ovarian is 16.5 µM; in the assay with OVCAR-8 ovarian it was 17.8 µM; in the assay with HCT-15 colon, 11.2 µM; in the assay with CAKI-1 renal, 18.3 µM; with SF-295 CNS, 16.8 µM; in the assay with SF-539 CNS, 21.3 µM. For the same compound, the figures for the GI50 in the assay with M14 melanoma, in the assay on SF-268 CNS and in the assay on OVCAR-4 ovarian were 22.1 µM, 17.7 µM and 38 µM, respectively. Also, the TGI in the assay on SK-OV-3 ovarian turned out to be 37.9 µM; with OVCAR-8 ovarian, 40.1 µM; in the assay on HCT-15 colon, 25 µM; in the assay with CAKI-1 renal, 42.5 µM; in the assay with SF-295 CNS, 33.3 µM; in the assay on SF-539 CNS it was 40.2 µM. Moreover, the TGI was above 100 µM in the assay on M14 melanoma, 35.7 µM with SF-268 CNS and above 100 µM in the assay with OVCAR-4 ovarian.

Turning to `Cc1cc(Cl)ccc1NC(=O)CCCC(=O)C(C(=O)c1ccccc1)c1ccccc1` (stereo unspecified), the TGI in the assay with SK-OV-3 ovarian, with IGROV1 ovarian, with HCT-15 colon, in the assay on CAKI-1 renal, in the assay with SF-295 CNS and in the assay on M14 melanoma was above 100 µM each time. Further, the TGI in the assay with SF-268 CNS and in the assay with OVCAR-4 ovarian was above 100 µM throughout.

`O=C(c1ccccc1)c1ccccc1C(=O)c1ccccc1`: the GI50 in the assay with SK-OV-3 ovarian is 50.3 µM; with OVCAR-8 ovarian it was 34.5 µM; with HCT-15 colon, 50 µM; in the assay with CAKI-1 renal, 19.4 µM; with SF-295 CNS it was 31 µM; in the assay on SF-539 CNS, 77.5 µM. Also, the GI50 was 31.9 µM with M14 melanoma, 63.4 µM in the assay on SF-268 CNS and 36.7 µM in the assay with OVCAR-4 ovarian. Further, the TGI in the assay on SK-OV-3 ovarian was above 100 µM; with OVCAR-8 ovarian, above 100 µM; with HCT-15 colon it was above 100 µM; with CAKI-1 renal, 70.6 µM; in the assay on SF-295 CNS, above 100 µM; in the assay with SF-539 CNS, above 100 µM. Besides, the TGI with M14 melanoma, with SF-268 CNS and with OVCAR-4 ovarian was above 100 µM throughout.
